Reference: US11739098B2 (BRISTOL-MYERS SQUIBB COMPANY, priority 2017, dated 2023)
Where a name gives a salt, the structure may show the parent alone.

Legend:
Assay type in all cases: cell-based
human TLR9 = biological target: T1, human TLR9 (Homo sapiens, UniProt Q9NR96); experiment: TLR9 inhibition reporter assay (HEK-Blue cells, SEAP reporter, ODN2006 stimulation); conditions: HEK-Blue cells overexpressing human TLR9, SEAP reporter, ODN2006 5 nM
T1 construct: host or cells: HEK-Blue cells (HEK293-derived reporter line)
T1 sequence (Q9NR96 26-1032): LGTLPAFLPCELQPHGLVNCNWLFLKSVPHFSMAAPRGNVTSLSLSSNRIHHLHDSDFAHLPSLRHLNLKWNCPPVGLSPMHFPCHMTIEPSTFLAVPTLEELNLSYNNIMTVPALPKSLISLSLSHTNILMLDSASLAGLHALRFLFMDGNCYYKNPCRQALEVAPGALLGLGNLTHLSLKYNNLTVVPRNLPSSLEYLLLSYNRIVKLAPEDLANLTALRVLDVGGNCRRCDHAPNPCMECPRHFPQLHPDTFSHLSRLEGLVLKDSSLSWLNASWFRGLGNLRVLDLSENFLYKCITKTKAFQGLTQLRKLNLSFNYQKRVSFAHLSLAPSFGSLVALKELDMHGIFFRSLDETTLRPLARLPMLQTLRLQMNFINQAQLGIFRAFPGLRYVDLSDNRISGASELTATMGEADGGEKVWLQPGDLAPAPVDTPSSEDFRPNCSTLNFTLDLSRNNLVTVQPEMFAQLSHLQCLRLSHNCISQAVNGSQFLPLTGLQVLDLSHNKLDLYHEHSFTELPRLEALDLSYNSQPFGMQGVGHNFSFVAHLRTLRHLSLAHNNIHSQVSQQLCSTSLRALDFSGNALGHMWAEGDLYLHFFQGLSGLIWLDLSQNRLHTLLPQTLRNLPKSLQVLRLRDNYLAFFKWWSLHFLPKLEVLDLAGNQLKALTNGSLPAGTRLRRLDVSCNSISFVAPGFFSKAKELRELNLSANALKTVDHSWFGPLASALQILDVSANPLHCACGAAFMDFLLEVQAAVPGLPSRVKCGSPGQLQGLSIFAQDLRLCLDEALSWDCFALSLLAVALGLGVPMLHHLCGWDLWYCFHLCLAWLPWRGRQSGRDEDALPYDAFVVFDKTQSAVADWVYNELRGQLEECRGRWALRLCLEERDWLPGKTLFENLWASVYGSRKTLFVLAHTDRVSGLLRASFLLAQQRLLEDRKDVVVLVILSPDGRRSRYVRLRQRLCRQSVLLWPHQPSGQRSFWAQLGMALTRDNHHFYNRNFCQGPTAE
Outline: (§1)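 HEK-Blue cells overexpressing the receptor, with NF-κB/AP-1-driven SEAP, were pre-treated 30 min at room temperature with compound (0.05 nM–50 μM), then stimulated with gardiquimod 7.5 μM (TLR7), R848 15.9 μM (TLR8) or ODN2006 5 nM (TLR9). SEAP was read after 22 h at 37 °C as percent inhibition.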

human TLR8 = biological target: T2, human TLR8 (Homo sapiens, UniProt Q9NR97); experiment: TLR8 inhibition reporter assay (HEK-Blue cells, SEAP reporter, R848 stimulation); conditions: HEK-Blue cells overexpressing human TLR8, SEAP reporter, R848 15.9 μM
T2 construct: host or cells: HEK-Blue cells (HEK293-derived reporter line)
T2 sequence (Q9NR97 27-1041): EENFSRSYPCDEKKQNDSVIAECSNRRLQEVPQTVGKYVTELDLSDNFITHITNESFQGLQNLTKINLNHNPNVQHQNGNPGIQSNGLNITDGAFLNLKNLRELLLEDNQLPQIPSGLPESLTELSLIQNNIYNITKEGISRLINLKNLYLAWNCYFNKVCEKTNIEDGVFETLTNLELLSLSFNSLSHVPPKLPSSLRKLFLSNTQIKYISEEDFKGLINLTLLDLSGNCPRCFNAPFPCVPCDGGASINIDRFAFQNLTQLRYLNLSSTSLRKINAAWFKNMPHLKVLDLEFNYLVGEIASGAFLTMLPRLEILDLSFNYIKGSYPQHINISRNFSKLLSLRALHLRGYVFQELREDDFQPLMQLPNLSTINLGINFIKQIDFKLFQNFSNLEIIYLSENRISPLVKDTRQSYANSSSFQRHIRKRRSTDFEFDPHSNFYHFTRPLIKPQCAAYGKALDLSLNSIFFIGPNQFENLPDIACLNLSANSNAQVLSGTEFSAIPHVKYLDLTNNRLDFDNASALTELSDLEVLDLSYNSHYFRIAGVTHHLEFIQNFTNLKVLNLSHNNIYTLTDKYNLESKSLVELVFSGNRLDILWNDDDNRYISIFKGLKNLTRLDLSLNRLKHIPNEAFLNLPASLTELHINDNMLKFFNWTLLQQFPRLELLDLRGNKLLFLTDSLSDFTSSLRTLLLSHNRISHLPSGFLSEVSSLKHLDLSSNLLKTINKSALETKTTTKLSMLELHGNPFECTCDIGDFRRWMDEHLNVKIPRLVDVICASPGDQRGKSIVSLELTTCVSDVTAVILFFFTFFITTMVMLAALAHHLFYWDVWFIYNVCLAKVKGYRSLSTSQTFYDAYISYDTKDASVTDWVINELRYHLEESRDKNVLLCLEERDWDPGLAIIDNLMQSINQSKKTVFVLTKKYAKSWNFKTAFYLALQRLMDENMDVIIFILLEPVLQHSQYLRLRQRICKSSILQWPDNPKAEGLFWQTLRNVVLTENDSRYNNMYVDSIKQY
Outline: as §1

human TLR7 = biological target: T3, human TLR7 (Homo sapiens, UniProt Q9NYK1); experiment: TLR7 inhibition reporter assay (HEK-Blue cells, SEAP reporter, gardiquimod stimulation); conditions: HEK-Blue cells overexpressing human TLR7, SEAP reporter, gardiquimod 7.5 μM
T3 construct: host or cells: HEK-Blue cells (HEK293-derived reporter line)
T3 sequence (Q9NYK1 27-1049): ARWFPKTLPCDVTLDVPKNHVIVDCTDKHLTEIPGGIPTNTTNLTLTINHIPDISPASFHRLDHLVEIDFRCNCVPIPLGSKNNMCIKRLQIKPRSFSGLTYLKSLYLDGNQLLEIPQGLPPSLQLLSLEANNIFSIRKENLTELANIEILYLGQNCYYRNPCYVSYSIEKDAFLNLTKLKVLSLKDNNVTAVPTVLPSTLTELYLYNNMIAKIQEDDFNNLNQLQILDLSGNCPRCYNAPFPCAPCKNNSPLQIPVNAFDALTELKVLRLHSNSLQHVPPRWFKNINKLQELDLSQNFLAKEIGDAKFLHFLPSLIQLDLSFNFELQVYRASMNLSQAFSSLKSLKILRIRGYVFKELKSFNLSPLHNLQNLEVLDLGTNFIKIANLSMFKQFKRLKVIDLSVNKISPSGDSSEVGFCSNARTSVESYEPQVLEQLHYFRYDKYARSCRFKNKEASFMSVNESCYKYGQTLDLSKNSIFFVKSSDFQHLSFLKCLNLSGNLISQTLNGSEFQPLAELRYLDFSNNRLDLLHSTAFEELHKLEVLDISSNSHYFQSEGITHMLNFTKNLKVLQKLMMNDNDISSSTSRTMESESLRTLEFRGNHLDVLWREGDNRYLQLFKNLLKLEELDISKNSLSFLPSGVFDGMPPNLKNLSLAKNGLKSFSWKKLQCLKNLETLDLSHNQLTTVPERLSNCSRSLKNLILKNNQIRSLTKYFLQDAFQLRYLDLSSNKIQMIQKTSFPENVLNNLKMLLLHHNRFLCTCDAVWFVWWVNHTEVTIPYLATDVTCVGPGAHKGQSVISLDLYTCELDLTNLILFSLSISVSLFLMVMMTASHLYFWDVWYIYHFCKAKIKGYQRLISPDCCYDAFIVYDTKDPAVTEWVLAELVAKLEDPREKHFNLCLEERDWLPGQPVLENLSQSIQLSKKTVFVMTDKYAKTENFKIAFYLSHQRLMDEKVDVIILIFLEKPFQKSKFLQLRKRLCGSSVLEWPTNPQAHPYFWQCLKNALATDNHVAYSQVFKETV
Outline: as §1

SMILES | IC50 (human TLR9) | IC50 (human TLR8) | IC50 (human TLR7)
CC(C)c1c(-c2cn3ccnc3cc2C(F)(F)F)[nH]c2ccc(C3CCNCC3)cc12 [Example 135, 6-(3-isopropyl-5-(piperidin-4-yl)-1H-indol-2-yl)-7-(trifluoromethyl)imidazo[1,2-a]pyridine] | 1000 to 50000 nM | < 100 nM | 100 to 1000 nM
CC(C)c1c(-c2ccnc3c2NC(=O)CO3)[nH]c2ccc(C3CCNCC3)cc12 [Example 68, 8-(3-isopropyl-5-(piperidin-4-yl)-1H-indol-2-yl)-1H-pyrido[2,3-b][1,4]oxazin-2(3H)-one] | 1000 to 50000 nM | 1000 to 50000 nM | 1000 to 50000 nM
CC(C)c1c(-c2ccc3cc[nH]c3c2)[nH]c2ccc(C3CCNCC3)cc12 [Example 65, 3-isopropyl-5-(piperidin-4-yl)-1H,1′H-2,6′-biindole] | 1000 to 50000 nM | 1000 to 50000 nM | 1000 to 50000 nM
CC(=O)N[C@H]1CCN(CC(=O)N2CCC(c3ccc4[nH]c(-c5ccnc6[nH]ncc56)c(C(C)C)c4c3)CC2)C1 [Example 581, (S)—N-(1-(2-(4-(3-isopropyl-2-(1H-pyrazolo[3,4-b]pyridin-4-yl)-1H-indol-5-yl)piperidin-1-yl)-2-oxoethyl)pyrrolidin-3-yl)acetamide] | 1000 to 50000 nM | < 100 nM | < 100 nM
CC(C)NCC(=O)N1CCC(c2ccc3[nH]c(-c4ccnc5[nH]ncc45)c(C(C)C)c3c2)CC1 [Example 578, 1-(4-(3-isopropyl-2-(1H-pyrazolo[3,4-b]pyridin-4-yl)-1H-indol-5-yl)piperidin-1-yl)-2-(isopropylamino)ethan-1-one] | 1000 to 50000 nM | < 100 nM | < 100 nM
CNC(=O)CN1CCC(c2ccc3[nH]c(-c4ccn5nc(C)cc5c4)c(C(C)C)c3c2)CC1 [Example 322, 2-(4-(3-isopropyl-2-(2-methylpyrazolo[1,5-a]pyridin-5-yl)-1H-indol-5-yl)piperidin-1-yl)-N-methylacetamide] | 1000 to 50000 nM | 1000 to 50000 nM | 100 to 1000 nM

Results, then the compound that gave them:

IC50 (human TLR9) | IC50 (human TLR8) | IC50 (human TLR7) | SMILES
1000 to 50000 nM | < 100 nM | < 100 nM | COc1c(C)c(-c2[nH]c3ccc(C4CCN(C5COC5)CC4)cc3c2C(C)C)nn2ncnc12 [Example 731, 6-(3-isopropyl-5-(1-(oxetan-3-yl)piperidin-4-yl)-1H-indol-2-yl)-8-methoxy-7-methyl-[1,2,4]triazolo[1,5-b]pyridazine]
1000 to 50000 nM | < 100 nM | < 100 nM | CC(C)c1c(-c2ccnc3[nH]ncc23)[nH]c2ccc(C3CCN(Cc4cccnc4)CC3)cc12 [Example 907, 4-(3-isopropyl-5-(1-(pyridin-3-ylmethyl)piperidin-4-yl)-1H-indol-2-yl)-1H-pyrazolo[3,4-b]pyridine]
1000 to 50000 nM | < 100 nM | < 100 nM | Cc1cc(-c2[nH]c3ccc(C4CCN(C5COC5)CC4)cc3c2C(C)C)nc2scnc12 [Example 718, 5-(3-isopropyl-5-(1-(oxetan-3-yl)piperidin-4-yl)-1H-indol-2-yl)-7-methylthiazolo[5,4-b]pyridine]
1000 to 50000 nM | < 100 nM | < 100 nM | Cc1cc(-c2[nH]c3ccc(C4CCN(CC(C)(C)O)CC4)cc3c2C(C)C)cn2nnnc12 [Example 745, 1-(4-(3-isopropyl-2-(8-methyltetrazolo[1,5-a]pyridin-6-yl)-1H-indol-5-yl)piperidin-1-yl)-2-methylpropan-2-ol, TFA]
1000 to 50000 nM | < 100 nM | < 100 nM | CCc1c(-c2ccnc3[nH]ncc23)[nH]c2ccc(C3CCN(Cc4cscn4)CC3)cc12 [Example 927, 4-((4-(3-ethyl-2-(1H-pyrazolo[3,4-b]pyridin-4-yl)-1H-indol-5-yl)piperidin-1-yl)methyl)thiazole]
1000 to 50000 nM | < 100 nM | < 100 nM | COCCN1CCC(c2ccc3[nH]c(-c4ccc(C#N)c5ncccc45)c(C(C)C)c3c2)CC1 [Example 778, 5-(3-isopropyl-5-(1-(2-methoxyethyl)piperidin-4-yl)-1H-indol-2-yl)quinoline-8-carbonitrile]
